Test results taken from US11639412B2, “Acute care cover for severe injuries” (priority 2016, dated 2023).

Tested on: Staphylococcus aureus
Assay: Zone of inhibition assay
Type: cell-based
Conditions: 37° C. for 72 hours
Method: Zone-of-inhibition and Drug Delivery Assay—Antimicrobial activity of ciprofloxacin- and tetracycline-loaded polyHIPEs was assessed through a zone of inhibition assay. […] The polyHIPE discs were incubated in the drug solutions at room temperature overnight. Prior to being frozen and lyophilized, the discs were briefly rinsed with methanol. A plate of Staphylococcus aureus was streaked using cells from frozen stocks; single colonies, selected from the plate, were then used to inoculate 10 mL of liquid LB media, which were cultured overnight at 37° C. The starter cultures were diluted with fresh LB to an OD600 of approximately 1.1 before being further diluted in 1:5 ratio of culture to fresh, liquid LB media. To inoculate LB agar plates, 250 μL of the diluted culture was spread evenly across the surface of the plates, which were then incubated for 30 minutes at 37° C. The LB plates were then removed from the incubator and divided into 4 quadrants with the drug-loaded or control polyHIPE discs placed in the center of each quadrant. The plates were then returned to the incubator and cultured for approximately 24 hours. Following the 24-hour period of incubation, the plates were removed, photographed next to a standard ruler and the polyHIPEs transferred to a freshly inoculated plate which was incubated for another 24 hours. […]

O=C(O)c1cn(C2CC2)c2cc(N3CCNCC3)c(F)cc2c1=O [ciprofloxacin]
antibiotic activity within polyHIPEs after incubation: not diminished
